Test results reported in US9440983B2, “Pyrrolo[3,2-d]pyrimidine-2,4(3H,5H)-dione derivatives” (Hydra Biosciences, Inc., priority 2014, dated 2016).

Columns and labels:
TRPC5 channel [1] = target: T1, TRPC5 channel (Homo sapiens, UniProt Q9UL62); assay: High throughput screening assay: Fluo4 cell-based fluorescence detection of intracellular Ca2+ rise; conditions: HEK293/TREx cells inducibly expressing TRPC5, high-Ca2+ Ringer (14 mM Ca2+), 7 concentrations in triplicate
T1 construct: expressed in transfected cells; host or cells: HEK293/TREx (Invitrogen), stably transfected, tetracycline-induced
T1 sequence (Q9UL62 1-973): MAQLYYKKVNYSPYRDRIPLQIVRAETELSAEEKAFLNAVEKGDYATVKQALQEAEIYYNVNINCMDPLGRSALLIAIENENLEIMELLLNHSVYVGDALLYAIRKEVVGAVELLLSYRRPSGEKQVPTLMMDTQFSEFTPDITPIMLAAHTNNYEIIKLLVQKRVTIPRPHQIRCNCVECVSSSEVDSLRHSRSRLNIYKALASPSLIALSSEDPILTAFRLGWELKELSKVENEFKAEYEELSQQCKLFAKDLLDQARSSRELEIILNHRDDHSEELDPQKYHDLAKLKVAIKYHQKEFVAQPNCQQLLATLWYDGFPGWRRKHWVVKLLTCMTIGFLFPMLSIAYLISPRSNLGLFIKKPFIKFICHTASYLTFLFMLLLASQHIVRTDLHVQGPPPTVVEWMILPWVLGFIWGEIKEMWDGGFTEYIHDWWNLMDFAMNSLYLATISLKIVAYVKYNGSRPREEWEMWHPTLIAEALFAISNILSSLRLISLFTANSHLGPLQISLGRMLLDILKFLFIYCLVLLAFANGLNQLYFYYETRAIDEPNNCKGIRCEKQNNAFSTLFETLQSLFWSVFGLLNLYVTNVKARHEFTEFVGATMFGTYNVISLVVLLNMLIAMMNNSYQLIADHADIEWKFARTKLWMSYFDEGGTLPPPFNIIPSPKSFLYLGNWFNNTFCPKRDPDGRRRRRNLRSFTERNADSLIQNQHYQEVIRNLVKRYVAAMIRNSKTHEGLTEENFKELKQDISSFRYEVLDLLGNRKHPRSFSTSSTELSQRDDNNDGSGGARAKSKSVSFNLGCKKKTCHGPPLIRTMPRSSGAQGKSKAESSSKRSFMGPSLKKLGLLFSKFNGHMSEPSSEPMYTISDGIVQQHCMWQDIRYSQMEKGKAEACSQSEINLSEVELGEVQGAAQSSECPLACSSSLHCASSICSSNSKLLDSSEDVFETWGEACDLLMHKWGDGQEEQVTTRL
From the text: The assay depended on detection of the rise in intracellular Ca2+ concentration ([Ca2+]i) following channel activation in cells inducibly expressing the TRPC5 channel. Ca2+ rise was quantified with the use of fluorescent Ca2+ indicators that were loaded into cells and thereafter indicated the [Ca2+]i Ca2+ influx followed activation of the TRPC5 channel. Compounds inhibiting the [Ca2+]i rise were considered hits for further investigation.
The commercially available HEK293/TREx line (Invitrogen) was stably transfected with a TRPC5 construct and screened by conventional calcium imaging to find clones with TRPC5 expression following stimulation with 1 μg/ml tetracycline. These cells were maintained in the growth medium recommended by the manufacturer supplemented with 100 μg/ml hygromycin to promote retention of the TRPC5 construct. After growing to near confluency, cells were plated at a density of ˜35,000 cells/well in 384 well CellBind plates (Corning) in the presence of 1 μg/ml tetracycline, and allowed to grow for 20-30 hrs. A nearly confluent monolayer resulted. Cells were then loaded with Ca2+ dye: Fura-2/AM or Fluo4/AM was added to the wells to a final concentration of 4 μM or 0.5 μM, respectively, and incubated for 80 min or 60 min, respectively, at room temperature. Supernatant was then removed from the cells by inverting plates with a sharp flick, and 25 μl Hank's Balanced Salt Solution (HBSS; 0.185 g/l D-glucose, 0.9767 g/l MgS04 (anhydrous), 0.4 g/l KCl, 0.06 g/l KH2PO4 (anhydrous), 0.35 g/l NaHCO3, 8.0 g/l NaCl, and 0.04788 g/l Na2HPO4 (anhydrous); pH 7.4) was then added to each well. Following ˜0.5 hour for recovery from loading, cells were assayed using the Hamamatsu FDSS 6000 system, which permitted illumination alternately at 340 nm and 380 nm for Fura-2 experiments, or at 485 nm for Fluo4 experiments. Frames were acquired at a rate of 0.2 Hz. During the assay, the plates were continuously vortexed, with pipette mixing of wells following addition of each reagent. For the screening assay, 26 μl of a diluted compound stock (at 50 μM) was added to each well for 2 minutes following the collection of a short (4 frame) baseline. 13 μl 62 mM high-Ca2+ Ringer solution (4.17 ml of normal ringer (with 2 mM Ca2+) plus 5.83 ml of isotonic calcium ringer (105 mM Ca2+; in this ringer all sodium has been replaced with calcium)) was then added to each well, achieving a final concentration of 14 mM Ca2+ and 10 μM test compound. Data was collected for ˜3 minutes following addition of high Ca2+Ringer, where the fluorescent intensity (for Fluo4) and the F340/F380 ratio (for Fura-2) were proportional to the [Ca2+]i Negative controls consisted of HEK293/TREx TRPC5 cells exposed to high Ca2+ solution, but no compound. Positive control conditions consisted of addition of 2-APB, a promiscuous blocker of TRPC5 and other channels, to columns 23 and 24 of the plates, to a final concentration of 200 μM. These controls defined a screening window, and “hits” were defined as those compounds inhibiting the fluorescence response by at least 40%. IC50 values were determined for compounds defined as “hits.” The Fluo4 cell-based fluorescence assay was used to determine the intracellular Ca2+ concentration in the presence of varying drug concentration. Final concentrations of compounds tested were 20 μM, 6.667 μM, 2.222 μM, 0.741 μM, 0.247 μM, 0.082 μM, and 0.027 μM. Compounds were tested in triplicate at all concentrations. Standard software was used to fit IC50 curves.
Additionally or alternatively, efficacy can be represented as % inhibition in the presence (of a given concentration of compound) versus the absence of compound or in comparison to a control compound. For example, efficacy can be represented as % inhibition of ion flux in the presence versus the absence of compound.

TRPC5 channel [2] = target: T1, TRPC5 channel; assay: Whole-cell patch clamp experiments, TRPC5 current; format: cell-based; conditions: whole-cell patch clamp in TRPC5-expressing HEK293 TREx cells; current activated by LaCl3; IC50 estimated
From the text: Patch clamp experiments permit the detection of currents through the TRPC5 channel in the cell line described above. In normal whole-cell patch clamp recordings, a glass electrode is brought into contact with a single cell and a high-resistance (gigaohm) seal is established with the cell membrane. The membrane is then ruptured to achieve the whole-cell configuration, permitting control of the voltage of the cell membrane and measurement of currents flowing across the membrane using the amplifier attached to the electrode and resulting in the replacement of cytoplasm with the pipette solution. A perfusion system permits control of the extracellular solution, including the addition of blockers and activators of the current. The current can be activated by including 1.4 μM free Ca^2+ in the pipette (intracellular) solution, and 80 μM LaCl3 in the extracellular solution. TRPC5 cells were induced 20-48 hours, removed from growth plates, and replated at low density (to attain good single-cell physical separation) on glass coverslips for measurement. In some cases, cells were grown in low density overnight on glass coverslips. […] Currents elicited were quantified at −80 mV and +80 mV. The internal solution consisted of 140 mM cesium aspartate, 10 mM HEDTA, 2 mM CaCl2, 2.27 mM MgCl2 and 10 mM HEPES, pH 7.2, with 1,400 nM calculated free Ca^2+. […]

Row | IC50 (TRPC5 channel [1]) [µM] | IC50 (TRPC5 channel [2]) [µM] | Compound
1 | 0.421 | – | Cc1c(-c2cccc(OC(F)(F)F)c2)n(Cc2ccc(Cl)cc2)c2c(=O)n(CCCO)c(=O)n(C)c12 [Compound 29, 5-(4-chlorobenzyl)-3-(3-hydroxypropyl)-1,7-dimethyl-6-(3-(trifluoromethoxy)phenyl)-1H-pyrrolo[3,2-d]pyrimidine-2,4(3H,5H)-dione]
2 | 0.503 | 0.00114 | Cn1c(=O)n(CCCO)c(=O)c2c1cc(-c1cccc(Cl)c1)n2Cc1ccc(Cl)cc1 [Compound 30, 5-(4-chlorobenzyl)-6-(3-chlorophenyl)-3-(3-hydroxypropyl)-1-methyl-1H-pyrrolo[3,2-d]pyrimidine-2,4(3H,5H)-dione]
3 | 2.94 | – | Cn1c(-c2cccc(OC(F)(F)F)c2)cc2c1c(=O)n(CCCO)c(=O)n2C [Compound 32, 3-(3-hydroxypropyl)-1,5-dimethyl-6-(3-(trifluoromethoxy)phenyl)-1H-pyrrolo[3,2-d]pyrimidine-2,4(3H,5H)-dione]
4 | 0.832 | – | Cc1c(-c2cccc(OC(F)(F)F)c2)n(C)c2c(=O)n(CCCO)c(=O)n(C)c12 [Compound 33, 3-(3-hydroxypropyl)-1,5,7-trimethyl-6-(3-(trifluoromethoxy)phenyl)-1H-pyrrolo[3,2-d]pyrimidine-2,4(3H,5H)-dione]
5 | 3.08 | – | Cc1cn(Cc2ccc(Cl)cc2)c2c(=O)n(CCCO)c(=O)n(C)c12 [Compound 34, 5-(4-chlorobenzyl)-3-(3-hydroxypropyl)-1,7-dimethyl-1H-pyrrolo[3,2-d]pyrimidine-2,4(3H,5H)-dione]
6 | 0.78 | – | Cn1c(=O)n(CCCO)c(=O)c2c1cc(-c1cccc(OC(F)(F)F)c1)n2Cc1ccc(Cl)cc1 [Compound 35, 5-(4-chlorobenzyl)-3-(3-hydroxypropyl)-1-methyl-6-(3-(trifluoromethoxy)phenyl)-1H-pyrrolo[3,2-d]pyrimidine-2,4(3H,5H)-dione]
7 | 7.54 | – | Cc1c(-c2cccc(OC(F)(F)F)c2)[nH]c2c(=O)n(CCCO)c(=O)n(C)c12 [Compound 36, 3-(3-hydroxypropyl)-1,7-dimethyl-6-(3-(trifluoromethoxy)phenyl)-1H-pyrrolo[3,2-d]pyrimidine-2,4(3H,5H)-dione]
8 | 0.408 | < 0.001 | Cn1c(=O)n(CCCO)c(=O)c2c1c(-c1cccc(Cl)c1)cn2Cc1ccc(Cl)cc1 [Compound 37, 5-(4-chlorobenzyl)-7-(3-chlorophenyl)-3-(3-hydroxypropyl)-1-methyl-1H-pyrrolo[3,2-d]pyrimidine-2,4(3H,5H)-dione]
